Laboratory results reported in patent US11427604B2 (Mindset Pharma Inc., priority 2020, dated 2022).
Where “and” joins values, the source holds several entries; their conditions need not be identical. Equal entries are not always repeated.

Legend:
[1] = Rat liver microsomes stability with NADPH
C57BL/6J mice = test: Mouse head twitch response (HTR); type: in vivo; settings: for Head Twitch 10 mins, AVG / Head Twitch 20 mins, AVG / Head Twitch 30 mins, AVG / Head Twitch 40 mins, AVG / Head Twitch 50 mins, AVG / Head Twitch 60 mins, AVG / Head Twitch Total, AVG: group mean; for Head Twitch Total, AVG: over 1 h
Protocol: Data is expressed as mean±SEM. The induction of head twitches elicited by 5-HT2A receptor agonists is believed to represent a behavioural proxy of their psychedelic effects.
The effect of different doses of exemplary compounds of Formula I were evaluated on head-twitch response (HTR) as a behavior-based model of psychedelic activity.
Male, C57BL/6J mice (body weight range 20-30 g) were dosed with the appropriate dose of test article, and following a 1-minute pre-treatment time, placed in individual observation chambers. Animals were visually assessed for the incidence head twitches continuously over a 1 hr period. Head twitches were defined as a rapid jerk of the head which was not elicited by an external tactile stimulus (Corne and Pickering, Psychopharmacologia, 1967, 11(1): 65-78). Each head twitch was individually counted by a trained observer, and the data expressed as the mean+SEM of 6-10 mice per group. Mice were used in a single experiment only.

[2H]C([2H])([2H])N(C([2H])([2H])[2H])C([2H])([2H])C([2H])([2H])c1c[nH]c2cccc(O)c12 [Compound I-45, 3-(2-(bis(methyl-d3)amino)ethyl-1,1,2,2-d4)-1H-indol-4-ol]
Remaining Percentage (%) after 60 min ([1]; Rat, with NADPH, 2 μM): 3.34%
half-life at 2 μM ([1]; rat, microsomes): 12.2 min
microsomal CLint at 2 μM ([1]; rat, microsomes): 113 µL/min/mg
Head Twitch 10 mins, individual animal (C57BL/6J mice; 0.03 mg/kg SC, animals C1-C6): 0 (2×) and 1 and 3 and 2 (2×)
Head Twitch 20 mins, individual animal (C57BL/6J mice; 0.03 mg/kg SC, animals C1-C6): 0 (5×) and 1
Head Twitch 30 mins, individual animal (C57BL/6J mice; 0.03 mg/kg SC, animals C1-C6): 0
Head Twitch 40 mins, individual animal (C57BL/6J mice; 0.03 mg/kg SC, animals C1-C6): 0
Head Twitch 50 mins, individual animal (C57BL/6J mice; 0.03 mg/kg SC, animals C1-C6): 0 (5×) and 1
Head Twitch 60 mins, individual animal (C57BL/6J mice; 0.03 mg/kg SC, animals C1-C6): 0
Head Twitch Total, individual animal (C57BL/6J mice; 0.03 mg/kg SC, animals C1-C6, over 1 h): 0 and 1 (2×) and 4 and 2 (2×)
Head Twitch 10 mins, AVG (C57BL/6J mice; 0.03 mg/kg SC): 1.3
Head Twitch 20 mins, AVG (C57BL/6J mice; 0.03 mg/kg SC): 0.2
Head Twitch 30 mins, AVG (C57BL/6J mice; 0.03 mg/kg SC): 0.0
Head Twitch 40 mins, AVG (C57BL/6J mice; 0.03 mg/kg SC): 0.0
Head Twitch 50 mins, AVG (C57BL/6J mice; 0.03 mg/kg SC): 0.2
Head Twitch 60 mins, AVG (C57BL/6J mice; 0.03 mg/kg SC): 0.0
Head Twitch Total, AVG (C57BL/6J mice; 0.03 mg/kg SC): 1.7
Head Twitch 10 mins, individual animal (C57BL/6J mice; 0.1 mg/kg SC, animals P1-P10): 3 and 6 and 0 (3×) and 1 (3×) and 2 (2×)
Head Twitch 20 mins, individual animal (C57BL/6J mice; 0.1 mg/kg SC, animals P1-P10): 1 (4×) and 0 (4×) and 2 (2×)
Head Twitch 30 mins, individual animal (C57BL/6J mice; 0.1 mg/kg SC, animals P1-P10): 0 (6×) and 1 (4×)
Head Twitch 40 mins, individual animal (C57BL/6J mice; 0.1 mg/kg SC, animals P1-P10): 1 (2×) and 0 (8×)
Head Twitch 50 mins, individual animal (C57BL/6J mice; 0.1 mg/kg SC, animals P1-P10): 0 (7×) and 2 and 1 (2×)
Head Twitch 60 mins, individual animal (C57BL/6J mice; 0.1 mg/kg SC, animals P1-P10): 0
Head Twitch Total, individual animal (C57BL/6J mice; 0.1 mg/kg SC, animals P1-P10, over 1 h): 5 and 9 and 3 (3×) and 2 (3×) and 1 and 4
Head Twitch 10 mins, AVG (C57BL/6J mice; 0.1 mg/kg SC): 1.6
Head Twitch 20 mins, AVG (C57BL/6J mice; 0.1 mg/kg SC): 0.8
Head Twitch 30 mins, AVG (C57BL/6J mice; 0.1 mg/kg SC): 0.4
Head Twitch 40 mins, AVG (C57BL/6J mice; 0.1 mg/kg SC): 0.2
Head Twitch 50 mins, AVG (C57BL/6J mice; 0.1 mg/kg SC): 0.4
Head Twitch 60 mins, AVG (C57BL/6J mice; 0.1 mg/kg SC): 0.0
Head Twitch Total, AVG (C57BL/6J mice; 0.1 mg/kg SC): 3.4
Head Twitch 10 mins, individual animal (C57BL/6J mice; 0.3 mg/kg SC, animals Q1-Q10): 3 and 1 (4×) and 0 (2×) and 2 (3×)
Head Twitch 20 mins, individual animal (C57BL/6J mice; 0.3 mg/kg SC, animals Q1-Q10): 0 (4×) and 1 (6×)
Head Twitch 30 mins, individual animal (C57BL/6J mice; 0.3 mg/kg SC, animals Q1-Q10): 1 (3×) and 0 (6×) and 3
Head Twitch 40 mins, individual animal (C57BL/6J mice; 0.3 mg/kg SC, animals Q1-Q10): 0 (8×) and 1 and 2
Head Twitch 50 mins, individual animal (C57BL/6J mice; 0.3 mg/kg SC, animals Q1-Q10): 0 (8×) and 1 (2×)
Head Twitch 60 mins, individual animal (C57BL/6J mice; 0.3 mg/kg SC, animals Q1-Q10): 0
Head Twitch Total, individual animal (C57BL/6J mice; 0.3 mg/kg SC, animals Q1-Q10, over 1 h): 4 (4×) and 2 (2×) and 1 and 3 and 6 and 0
Head Twitch 10 mins, AVG (C57BL/6J mice; 0.3 mg/kg SC): 1.3
Head Twitch 20 mins, AVG (C57BL/6J mice; 0.3 mg/kg SC): 0.6
Head Twitch 30 mins, AVG (C57BL/6J mice; 0.3 mg/kg SC): 0.6
Head Twitch 40 mins, AVG (C57BL/6J mice; 0.3 mg/kg SC): 0.3
Head Twitch 50 mins, AVG (C57BL/6J mice; 0.3 mg/kg SC): 0.2
Head Twitch 60 mins, AVG (C57BL/6J mice; 0.3 mg/kg SC): 0.0
Head Twitch Total, AVG (C57BL/6J mice; 0.3 mg/kg SC): 3.0
Head Twitch 10 mins, individual animal (C57BL/6J mice; 1 mg/kg SC, animals R1-R6): 0 and 4 and 1 and 3 (3×)
Head Twitch 20 mins, individual animal (C57BL/6J mice; 1 mg/kg SC, animals R1-R6): 0 (2×) and 2 and 1 and 7 and 8
Head Twitch 30 mins, individual animal (C57BL/6J mice; 1 mg/kg SC, animals R1-R6): 1 (2×) and 0 (3×) and 3
Head Twitch 40 mins, individual animal (C57BL/6J mice; 1 mg/kg SC, animals R1-R6): 0 (4×) and 2 (2×)
Head Twitch 50 mins, individual animal (C57BL/6J mice; 1 mg/kg SC, animals R1-R6): 0
Head Twitch 60 mins, individual animal (C57BL/6J mice; 1 mg/kg SC, animals R1-R6): 0
Head Twitch Total, individual animal (C57BL/6J mice; 1 mg/kg SC, animals R1-R6, over 1 h): 1 and 6 and 2 and 3 and 15 and 14
Head Twitch 10 mins, AVG (C57BL/6J mice; 1 mg/kg SC): 2.3
Head Twitch 20 mins, AVG (C57BL/6J mice; 1 mg/kg SC): 3.0
Head Twitch 30 mins, AVG (C57BL/6J mice; 1 mg/kg SC): 0.8
Head Twitch 40 mins, AVG (C57BL/6J mice; 1 mg/kg SC): 0.7
